According to patent publication USRE48461E1, “Modulation of androgen receptor expression” (Ionis Pharmaceuticals, Inc., priority 2012, dated 2021):
Oligonucleotides are written 5' to 3', each unit as a sugar letter and its base; * is a phosphorothioate linkage, no mark a phosphodiester; rarer units and linkages stand in square brackets, end groups in braces. Plain capitals give the bases only. k = constrained ethyl (cEt); [5mC] = 5-methylcytosine; d = 2'-deoxy (DNA)

What was measured:
AR mRNA [1] = assay: Antisense inhibition of human AR in HuVEC cells, single concentration (electroporation, qRT-PCR RTS3559); format: cell-based; conditions: electroporation, approximately 24 hours, relative to untreated control
How it was run: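 AR mRNA levels were measured with human primer-probe set RTS3559 and adjusted for total RNA (RIBOGREEN). Cells were HuVEC, with each antisense oligonucleotide delivered by electroporation at one concentration.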

AR mRNA [2] = assay: AR mRNA in LnCaP cells by free uptake (hAR_LTS00943); format: cell-based, human; conditions: 24 hrs
Procedure: Cells were plated at a concentration of 4,000 cells/well in 96-well plates. ISIS oligonucleotides, specified in Table 68, were added individually at 0.02 μM, 0.10 μM, 0.50 μM, 2.50 μM, or 10.00 μM. After an incubation period of 24 hrs, mRNA levels were measured using primer probe set hAR_LTS00943.

AR mRNA [3] = assay: Dose-dependent antisense inhibition of human AR in HuVEC cells (electroporation, qRT-PCR RTS3559, IC50); format: cell-based; conditions: HuVEC, electroporation, approximately 16 hours
How it was run: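 HuVEC cells dosed with antisense oligonucleotides by electroporation and treated approximately 16 hours. AR mRNA quantified by real-time qPCR with primer probe set RTS3559 and normalised to total RNA by RIBOGREEN; IC50 from dose-response.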

AR mRNA [4] = assay: AR mRNA in liver, heart, skeletal muscle, kidney, prostate of cynomolgus monkeys; format: in vivo; conditions: cynomolgus monkey, 40 mg/kg subcutaneously; for Percent Inhibition of AR mRNA relative to the PBS control, Heart: weeks 1 to 6, Heart; for Percent Inhibition of AR mRNA relative to the PBS control, Kidney: weeks 1 to 6, Kidney; for Percent Inhibition of AR mRNA relative to the PBS control, Liver: weeks 1 to 6, Liver; for Percent Inhibition of AR mRNA relative to the PBS control, Prostate: weeks 1 to 6, Prostate; for Percent Inhibition of AR mRNA relative to the PBS control, Skeletal Muscle: weeks 1 to 6, Skeletal Muscle
Procedure: Cynomolgus monkeys were treated with ISIS antisense oligonucleotides selected from studies described above. Antisense oligonucleotide efficacy and tolerability were evaluated. The human antisense oligonucleotides tested are cross-reactive with the rhesus genomic sequence (GENBANK Accession No. NW_001218131.1 truncated from nucleotides 134001 to 308000 and designated herein as SEQ ID NO: 189). The target start site and target region of each oligonucleotide to SEQ ID NO: 189, as well as the details of their chemistry and sequence, is presented in Table 133.
RNA was extracted from liver, heart, skeletal muscle, kidney, and prostate tissues for real-time PCR analysis of AR using primer probe set RTS3559. The results were normalized to RIBOGREEN®. Results are presented as percent inhibition of AR mRNA, relative to PBS control.

[5] = Table 24, 1,000 nM oligonucleotide

Substance | Percent inhibition of AR mRNA (AR mRNA [2]; 0.02 μM) | Percent inhibition of AR mRNA (AR mRNA [2]; 0.1 μM) | Percent inhibition of AR mRNA (AR mRNA [2]; 0.5 μM) | Percent inhibition of AR mRNA (AR mRNA [2]; 10 μM) | Percent Inhibition of AR mRNA relative to the PBS control, Heart (AR mRNA [4]) | Percent Inhibition of AR mRNA relative to the PBS control, Kidney (AR mRNA [4]) | Percent Inhibition of AR mRNA relative to the PBS control, Liver (AR mRNA [4]) | Percent Inhibition of AR mRNA relative to the PBS control, Prostate (AR mRNA [4]) | Percent Inhibition of AR mRNA relative to the PBS control, Skeletal Muscle (AR mRNA [4]) | % inhibition (AR mRNA [1]; [5]) | percent inhibition of AR, 46.9 nM (AR mRNA [3]; Table 35) | percent inhibition of AR, 187.5 nM (AR mRNA [3]; Table 35) | percent inhibition of AR, 750.0 nM (AR mRNA [3]; Table 35) | percent inhibition of AR, 3000.0 nM (AR mRNA [3]; Table 35) | IC50 (AR mRNA [3]; Table 35) | percent inhibition of AR, 46.9 nM (AR mRNA [3]; Table 36) | percent inhibition of AR, 187.5 nM (AR mRNA [3]; Table 36) | percent inhibition of AR, 750.0 nM (AR mRNA [3]; Table 36) | percent inhibition of AR, 3000.0 nM (AR mRNA [3]; Table 36) | IC50 (AR mRNA [3]; Table 36) | other results
583918 (kA*kG*kT*d[5mC]*dG*d[5mC]*dG*dA*d[5mC]*dT*d[5mC]*dT*dG*kG*kT*kA) [compound 583918] | 8% | 0% | 0% | 13% | 76% | 73% | 88% | 58% | 74% | – | – | – | – | – | – | – | – | – | – | – | % inhibition (AR mRNA [1]; Table 21, 500 nM oligonucleotide): 47%; percent inhibition of AR, 46.9 nM (AR mRNA [3]; Table 33): 16%; percent inhibition of AR, 187.5 nM (AR mRNA [3]; Table 33): 47%; percent inhibition of AR, 750.0 nM (AR mRNA [3]; Table 33): 68%; percent inhibition of AR, 3000.0 nM (AR mRNA [3]; Table 33): 86%; IC50 (AR mRNA [3]; Table 33): 300 nM
584149 (kG*kT*k[5mC]*dA*dA*dT*dA*dT*d[5mC]*dA*dA*dA*dG*k[5mC]*kA*k[5mC]) [compound 584149] | 0% | 0% | 0% | 39% | 33% | 77% | 93% | 45% | 63% | 85% | 11% | 37% | 68% | 89% | 310 nM | – | – | – | – | – | –
584163 (kG*kA*kA*d[5mC]*dA*dT*dT*dA*dT*dT*dA*dG*dG*k[5mC]*kT*kA) [compound 584163] | 0% | 0% | 19% | 70% | 53% | 90% | 98% | 58% | 73% | 81% | 19% | 37% | 74% | 90% | 250 nM | – | – | – | – | – | –
584269 (k[5mC]*k[5mC]*kT*dT*dA*dT*dG*dG*dA*dT*dG*d[5mC]*dT*kG*k[5mC]*kT) [compound 584269] | 0% | 0% | 0% | 23% | 72% | 92% | 96% | 41% | 76% | – | – | – | – | – | – | 6% | 26% | 69% | 92% | 340 nM | % inhibition (AR mRNA [1]; Table 25, 1,000 nM oligonucleotide): 57%
584468 (k[5mC]*kA*kT*dT*dG*dT*dA*d[5mC]*dT*dA*dT*dG*d[5mC]*k[5mC]*kA*kG) [compound 584468] | 0% | 0% | 10% | 73% | 33% | 88% | 97% | 50% | 53% | – | – | – | – | – | – | 9% | 26% | 60% | 90% | 370 nM | % inhibition (AR mRNA [1]; Table 27, 1,000 nM oligonucleotide): 64%
